For 1 molecule, IC50 results are on record in ChEMBL document CHEMBL1129764, “Synthesis of N-kojic-amino acid and N-kojic-amino acid-kojiate and their tyrosinase inhibitory activity” (Bioorg Med Chem Lett, 1996).

For this experiment, the target named is T1, Tyrosinase (Homo sapiens, UniProt P14679).
T1 sequence (P14679 whole entry): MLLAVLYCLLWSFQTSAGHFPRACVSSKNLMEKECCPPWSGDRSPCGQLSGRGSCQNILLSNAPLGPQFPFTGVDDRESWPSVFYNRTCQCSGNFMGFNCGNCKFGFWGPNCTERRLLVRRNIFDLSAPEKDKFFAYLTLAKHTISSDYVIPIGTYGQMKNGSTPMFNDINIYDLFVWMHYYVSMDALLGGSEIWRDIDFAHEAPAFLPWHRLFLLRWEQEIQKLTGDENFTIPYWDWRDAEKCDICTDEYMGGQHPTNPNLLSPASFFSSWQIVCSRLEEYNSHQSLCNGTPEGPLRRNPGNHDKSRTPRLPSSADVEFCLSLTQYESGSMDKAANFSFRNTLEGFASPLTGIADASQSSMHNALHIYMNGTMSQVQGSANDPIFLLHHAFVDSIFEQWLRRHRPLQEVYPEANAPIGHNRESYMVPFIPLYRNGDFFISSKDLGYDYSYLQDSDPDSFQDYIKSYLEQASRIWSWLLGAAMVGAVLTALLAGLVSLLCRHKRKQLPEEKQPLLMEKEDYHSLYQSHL
The experiment in a line: Compound was evaluated for inhibition of tyrosinase enzyme; Not active. Set-up: species or system mushroom.

Consider `N[C@@H](Cc1ccccc1)C(=O)O` [PHENYLALANINE], for which the IC50 entry is listed as “Not Active”.
